pEC50: −log10 of the molar value. Values joined by “and” are separate entries in the source; they are usually repeats but may differ in a detail not shown here. Equal entries are not always repeated.
target: T1, particulate guanylyl cyclase receptor A (pGC-A) (Homo sapiens, UniProt P16066); assay: cGMP production by HTRF in HEK293 cells overexpressing pGC-A, with ANP; format: cell-based; conditions: HEK293, HEK293 cells overexpressing pGC-A; cGMP normalized to maximal amount produced by an EC80 concentration of ANP; read-out: Max efficacy
T1 construct: expressed in transfected cells; host or cells: HEK293
T1 sequence (P16066 33-1061): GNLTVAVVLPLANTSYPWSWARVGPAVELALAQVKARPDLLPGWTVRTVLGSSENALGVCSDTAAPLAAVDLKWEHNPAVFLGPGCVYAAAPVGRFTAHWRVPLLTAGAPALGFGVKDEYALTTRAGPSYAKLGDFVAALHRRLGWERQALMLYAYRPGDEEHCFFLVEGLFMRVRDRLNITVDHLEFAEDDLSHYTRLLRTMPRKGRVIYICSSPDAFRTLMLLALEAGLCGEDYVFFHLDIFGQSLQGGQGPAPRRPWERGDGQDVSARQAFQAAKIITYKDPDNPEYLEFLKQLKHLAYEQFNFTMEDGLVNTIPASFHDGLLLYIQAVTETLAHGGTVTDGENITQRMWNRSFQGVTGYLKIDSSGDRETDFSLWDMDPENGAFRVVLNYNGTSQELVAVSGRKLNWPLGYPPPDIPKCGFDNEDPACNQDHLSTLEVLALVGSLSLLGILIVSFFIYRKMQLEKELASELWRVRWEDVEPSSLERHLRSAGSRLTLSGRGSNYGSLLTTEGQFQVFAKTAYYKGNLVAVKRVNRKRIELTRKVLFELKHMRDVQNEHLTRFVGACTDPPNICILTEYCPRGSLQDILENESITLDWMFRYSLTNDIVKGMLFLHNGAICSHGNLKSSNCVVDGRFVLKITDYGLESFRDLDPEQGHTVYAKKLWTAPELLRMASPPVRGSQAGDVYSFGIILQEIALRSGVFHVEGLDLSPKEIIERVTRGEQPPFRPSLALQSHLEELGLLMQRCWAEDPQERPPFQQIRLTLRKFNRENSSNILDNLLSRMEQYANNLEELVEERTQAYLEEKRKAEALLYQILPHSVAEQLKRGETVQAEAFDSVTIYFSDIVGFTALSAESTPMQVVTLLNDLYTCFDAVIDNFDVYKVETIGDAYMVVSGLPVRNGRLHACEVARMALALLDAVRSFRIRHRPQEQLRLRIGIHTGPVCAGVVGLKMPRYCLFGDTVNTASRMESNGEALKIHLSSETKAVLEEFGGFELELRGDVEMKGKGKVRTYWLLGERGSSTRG
T1 sequence (P01160 124-151 partner limits assumed): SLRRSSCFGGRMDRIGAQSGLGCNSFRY
Description: Assay: Generally, the assay monitors the production of cGMP, the second messenger generated by pGC-A, by Time-Resolved Florescence (HTRF) in HEK293 cells overexpressing the pGC-A. pGC-A suspension cells were stimulated in the presence of the test compound and an EC20 concentration of ANP. The quantity of cGMP was detected by competitive immunoassay using Eu^3+ cryptate-labeled anti-cGMP and d2-labeled cGMP and normalized to maximal amount produced by an EC80 concentration of ANP. Compound EC50 values were determined in the primary assay, in the presence or absence of ANP, to determine mode of action as positive modulators and tested for selectivity in the same assay platform but in HEK cells overexpressing the particulate guanylyl cyclase B receptor (pGC-B), of which CNP is the endogenous ligand.
Assay details: 20 nL of 10 μM test compound in DMSO was added to columns 5-48 of 1536 well white high base screening plates (Corning, New York, NY) cells using 550 ECHO acoustic dispenser (Labcyte, San Jose, CA). Alpha-atrial natriuretic peptide (ANP) (Phoenix Pharmaceutics) was prepared as stock aliquots at 5 μM in PBS with 0.1% BSA. An approximate […] concentration of ANP ([…]) in assay buffer (HBSS containing 5 mM HEPES and 0.05% BSA) was added to columns 3-48 at a volume of 1 μL. Assay buffer only was added to column 1 and assay buffer containing a saturating concentration of ANP (5 nM) was added to column 2. HEK293 cells overexpressing GC-A were resuspended in assay media (OptimMem media containing 2% Heat-inactivated Fetal bovine serum and L-glutamine) at a density of 6×10^5 cells/mL and 2 μL were plated in screening plates (1200 cells/well) in suspension using a Bioraptr 2. Plates were spun at 1000 rpm for 1 min and incubated for 30 min at room temperature. 1.5 μL d2-labeled cGMP followed by 1.5 μL Eu^3+ cryptate-labeled anti-cGMP cGMP detection kit (CiBio; #62GM2PEC) prepared according to manufacturer's protocol were added to all wells using a Bioraptr 2 and TR-FRET signal was detected on an EnVision detector (PerkinElmer). Wells treated with 0.3% DMSO only serve as blank controls (column 1); wells treated with 0.3% DMSO and 5 nM ANP (columns 2) serve as positive controls and wells treated with 0.3% DMSO and […] ANP (columns 3-4) serve as negative controls.

SMILES | Emax [%]
O=C(Nc1nc2c(F)cc(F)cc2s1)C1CCCN(C2CCNC2)C1 (stereo not shown) [compound 091] | 72
CN(C)CCN1CC(O)CC(C(=O)Nc2nc3c(F)cc(F)cc3s2)C1 (stereo not shown) [compound 262] | 86
CN1CCCCC1CN1CCCC(C(=O)Nc2nc3c(F)cc(F)cc3s2)C1 (stereo not shown) [compound 073] | 94
Cn1cc(N2CCCC(C(=O)Nc3nc4c(F)cc(F)cc4s3)C2)cn1 (stereo not shown) [compound 078] | 86
O=C(Nc1nc2c(F)cc(F)cc2s1)C1CCCN(c2ccncc2F)C1 (stereo not shown) [compound 112] | 97
CN(C)CCCN1CCCC(C(=O)Nc2nc3c(F)cc(F)cc3s2)C1 (stereo not shown) [compound 231] | 98
O=C(Nc1nc2c(F)cc(F)cc2s1)C1CCCN(CCn2ccnc2)C1 (stereo not shown) [compound 068] | 89
CN(C)C(=O)N1CCCC(C(=O)Nc2nc3c(Cl)cc(F)cc3s2)C1 (stereo not shown) [compound 282] | 61
O=C(Nc1nc2c(F)cc(F)cc2s1)C1CCCN(c2ccnc(F)c2)C1 (stereo not shown) [compound 106] | 101
COC1CNCC(C(=O)Nc2nc3c(F)cc(F)cc3s2)C1 (stereo not shown) [compound 265] | 75
N[C@@H]1CCCC(C(=O)Nc2nc3c(F)cc(F)cc3s2)C1 (stereo partly shown) [compound 208] | 87
O=C(Nc1nc2c(F)cc(F)cc2s1)C1CCCN(CCN2CCCC2=O)C1 (stereo not shown) [compound 245] | 102
COC(=O)CN1CCC(N2CCCC(C(=O)Nc3nc4c(F)cc(F)cc4s3)C2)C1 (stereo not shown) [compound 094] | 93
O=C(Nc1nc2c(F)cc(F)cc2s1)C1CCCN(CCN2CCCC2)C1 (stereo not shown) [compound 239] | 87
O=C(Nc1nc2c(F)cc(F)cc2s1)C1CCCN(CCN2CCOC2=O)C1 (stereo not shown) [compound 241] | 93
O=C(Nc1nc2c(F)cc(F)cc2s1)C1CCCN(CCN2CCCC2C(=O)O)C1 (stereo not shown) [compound 259] | 74
O=C(Nc1nc2c(F)cc(F)cc2s1)C1CCCN(Cc2ccncc2)C1 (stereo not shown) [compound 110] | 95

More lines, now with the values ahead:

Emax [%] | SMILES
91 | CN(C)C1CCN(CC(=O)Nc2nc3c(F)cc(F)cc3s2)CC1 [compound 219]
86 | CN(C)C(=O)N1CCCC(C(=O)Nc2nc3c(F)cc(F)cc3s2)C1 (stereo not shown) [compound 255]
105 | CN(CCO)CCN1CCCC(C(=O)Nc2nc3c(F)cc(F)cc3s2)C1 (stereo not shown) [compound 242]
84 | CN1CCC(N2CCCC(C(=O)Nc3nc4c(Br)cccc4s3)C2)C1 (stereo not shown) [compound 100]
91 | O=C(Nc1nc2c(F)cc(F)cc2s1)C1CCCN(C2CCCC2)C1 (stereo not shown) [compound 099]
83 | CN1CC(N2CCCC(C(=O)Nc3nc4c(F)cc(F)cc4s3)C2)C1 (stereo not shown) [compound 084]
95 | O=C(Nc1nc2c(F)cc(F)cc2s1)C1CNc2ccccc2C1 (stereo not shown) [compound 058]
82 | O=C(Nc1nc2c(F)cc(F)cc2s1)C1CCCN(c2ccncn2)C1 (stereo not shown) [compound 109]
78 | CN(C)CCC1CCCC(C(=O)Nc2nc3c(Cl)cc(F)cc3s2)C1 (stereo not shown) [compound 215]

same assay, conditions: HEK293 cells overexpressing pGC-A; cGMP normalized to maximal amount produced by an EC80 concentration of ANP

SMILES | Max efficacy
Cn1cc(N2CCCC(C(=O)Nc3nc4c(F)cc(F)cc4s3)C2)cn1 (stereo not shown) [compound 078] | 81%
O=C(Nc1nc2c(F)cc(F)cc2s1)C1CCCN(CCN2CCCC2)C1 (stereo not shown) [compound 239] | 94% and 77%
O=C(Nc1nc2c(F)cc(F)cc2s1)C1CCCN(Cc2ccncc2)C1 (stereo not shown) [compound 110] | 78%

More lines, now with the values ahead:

Max efficacy | SMILES
67% | CN1CC(N2CCCC(C(=O)Nc3nc4c(F)cc(F)cc4s3)C2)C1 (stereo not shown) [compound 084]
74% | O=C(Nc1nc2c(F)cc(F)cc2s1)C1CCCN(c2ccncn2)C1 (stereo not shown) [compound 109]

same assay, conditions: HEK293 cells overexpressing pGC-A; test compound plus EC20 concentration of ANP; cGMP by HTRF

SMILES | pEC50
O=C(Nc1nc2c(F)cc(F)cc2s1)C1CCCN(C2CCNC2)C1 (stereo not shown) [compound 091] | 5.89
CN(C)CCN1CC(O)CC(C(=O)Nc2nc3c(F)cc(F)cc3s2)C1 (stereo not shown) [compound 262] | 6.40
CN1CCCCC1CN1CCCC(C(=O)Nc2nc3c(F)cc(F)cc3s2)C1 (stereo not shown) [compound 073] | 6.40
Cn1cc(N2CCCC(C(=O)Nc3nc4c(F)cc(F)cc4s3)C2)cn1 (stereo not shown) [compound 078] | 5.31 and 5.68
CN(C)CCCN1CCCC(C(=O)Nc2nc3c(F)cc(F)cc3s2)C1 (stereo not shown) [compound 231] | 6.05
O=C(Nc1nc2c(F)cc(F)cc2s1)C1CCCN(CCn2ccnc2)C1 (stereo not shown) [compound 068] | 6.05
CN(C)C(=O)N1CCCC(C(=O)Nc2nc3c(Cl)cc(F)cc3s2)C1 (stereo not shown) [compound 282] | 6.74
O=C(Nc1nc2c(F)cc(F)cc2s1)C1CCCN(c2ccnc(F)c2)C1 (stereo not shown) [compound 106] | 5.46
COC1CNCC(C(=O)Nc2nc3c(F)cc(F)cc3s2)C1 (stereo not shown) [compound 265] | 5.77
O=C(Nc1nc2c(F)cc(F)cc2s1)C1CCCN(CCN2CCCC2=O)C1 (stereo not shown) [compound 245] | 5.35 and 5.74
COC(=O)CN1CCC(N2CCCC(C(=O)Nc3nc4c(F)cc(F)cc4s3)C2)C1 (stereo not shown) [compound 094] | 6.00
O=C(Nc1nc2c(F)cc(F)cc2s1)C1CCCN(CCN2CCCC2)C1 (stereo not shown) [compound 239] | 6.66 and 6.52
O=C(Nc1nc2c(F)cc(F)cc2s1)C1CCCN(CCN2CCOC2=O)C1 (stereo not shown) [compound 241] | 5.80
O=C(Nc1nc2c(F)cc(F)cc2s1)C1CCCN(CCN2CCCC2C(=O)O)C1 (stereo not shown) [compound 259] | 5.89
O=C(Nc1nc2c(F)cc(F)cc2s1)C1CCCN(Cc2ccncc2)C1 (stereo not shown) [compound 110] | 6.34 and 5.96

Second part, the molecule after the results:

pEC50 | SMILES
5.82 | CN(C)C1CCN(CC(=O)Nc2nc3c(F)cc(F)cc3s2)CC1 [compound 219]
6.22 | CN(C)C(=O)N1CCCC(C(=O)Nc2nc3c(F)cc(F)cc3s2)C1 (stereo not shown) [compound 255]
6.15 | CN(CCO)CCN1CCCC(C(=O)Nc2nc3c(F)cc(F)cc3s2)C1 (stereo not shown) [compound 242]
6.60 | CN1CCC(N2CCCC(C(=O)Nc3nc4c(Br)cccc4s3)C2)C1 (stereo not shown) [compound 100]
6.22 | O=C(Nc1nc2c(F)cc(F)cc2s1)C1CCCN(C2CCCC2)C1 (stereo not shown) [compound 099]
7.15 and 7.70 | CN1CC(N2CCCC(C(=O)Nc3nc4c(F)cc(F)cc4s3)C2)C1 (stereo not shown) [compound 084]
5.59 | O=C(Nc1nc2c(F)cc(F)cc2s1)C1CNc2ccccc2C1 (stereo not shown) [compound 058]
6.70 and 5.97 | O=C(Nc1nc2c(F)cc(F)cc2s1)C1CCCN(c2ccncn2)C1 (stereo not shown) [compound 109]
6.05 | CN(C)CCC1CCCC(C(=O)Nc2nc3c(Cl)cc(F)cc3s2)C1 (stereo not shown) [compound 215]
